In patent US12714719B2, “Cannabinoids, pharmaceutical compositions comprising same and uses thereof” (TECHNION RESEARCH AND DEVELOPMENT FOUNDATION LIMITED, priority 2020, dated 2026):

Experiments:
[1] = system: DBTRG-05MG cells; assay: Hoechst / Propidium Iodide cell death imaging; format: cell-based; conditions: 24 hours; for % of cell death, effect of adding the cannabinoid to CBD: DBTRG-05MG, purified cannabinoids at content of extract 2, 4 and 8 μg/ml, compared with CBD alone
Experimental: The effects of cannabinoids on the survival of tolerant glioblastoma (GBM) cancer cells harboring a NOTCH 4 mutation were examined.
DBTRG-05MG cells were cultured in 96 well plate (1×10^5 cells/well) until confluency and treated with DMSO as control, pure cannabidiol (CBD), and extracts CAN12 and CAN26 with increasing concentrations from 1 to 4 μg/ml (FIG. 2A).
In another experiment, cells were cultured in 96 well plate (1×10^5 cells/well) until confluency and treated for 24 hours with three molecules (CBD, CBDV and CF1) as compared to the whole extract. The treatments were performed using three extract concentrations: 2, 4 and 8 μg/ml (FIG. 2B). After 24 hours, cells were stained with Hoechst and Propidium Iodide (PI) and imaged by IXM micro system (Molecular Devices) in 10× magnification. Live and dead cells were analyzed by MetaXpress® software (Molecular Devices) and presented as percentages of cell death from total cells. The purified phytocannabinoids were diluted to contain the same content as in the extract, then were provided according to the extract concentrations.

[2] = system: Molt-4 cells; assay: AlamarBlue (resazurin) viability assay; format: cell-based
Experimental: Dose-dependent AlamarBlue® (resazurin) viability assays were performed on Molt-4 cells treated with different concentrations of three phytocannabinoids (CBD, CBDV and CF1) at different ratios, as shown in Table 2.
In order to determine the effect of cannabinoids on the reduction of the survival rate of cancer cells, dose-dependent AlamarBlue® (resazurin) viability assays were then performed on Molt-4 cells treated with single cannabinoids or a combination of two cannabinoids at the same concentration as that of the three phytocannabinoids present in the whole extract, as shown in Table 3. Particularly, CF1 alone, or in combination with one additional cannabinoid was examined to determine its capability to induce apoptosis of cancer cells.

| Compound | % of cell death ([1]; GBM DBTRG-05MG cells harboring a NOTCH 4 mutation, vs DMSO) | % of cell death, effect of adding the cannabinoid to CBD [1] | inducing cancer cells death ([2]; Molt-4, CF1 alone as a single cannabinoid (1a, 0.62 ng/μl)) | potency among the three cannabinoids (CBD, CBDV, CF1) ([2]; Molt-4, Table 3 compositions) |
| --- | --- | --- | --- | --- |
| C=C(C)[C@@H]1CCC(C)=C[C@H]1c1c(O)cc(CCCCC)cc1O [CBD, cannabidiol] | increased | – | – | – |
| C=C(C)[C@@H]1CCC(C)=C[C@H]1c1c(O)cc(CCC)cc1O [CBDV, cannabidivarin] | – | improved the activity of CBD alone | – | – |
| CCCCCc1cc(O)c(C2C=C(C)CCC2C(C)(C)O)c(O)c1 [CF1, 1,3-benzenediol,2-[(1R,6R)-6-(1-hydroxy-1-methylethyl)-3-methyl-2cyclohexen-1-yl]-5-pentyl] | – | improved the activity of CBD alone | showed efficacy | most potent |
